Measured values: ChEMBL document CHEMBL3400130, “Identification of apoptosis signal-regulating kinase 1 (ASK1) inhibitors among the derivatives of benzothiazol-2-yl-3-hydroxy-5-phenyl-1,5-dihydro-pyrrol-2-one” (Bioorg Med Chem, 2015)
pIC50: −log10 of the molar value.

Key:
[1] = target: T1, Mitogen-activated protein kinase kinase kinase 5 (Homo sapiens, UniProt Q99683); assay: Inhibition of recombinant ASK1 catalytic subunit (unknown origin) using MBP substrate and gamma-labeled 32P ATP incubated for 20 mins by liquid scintillation counting method
T1 sequence (Q99683 whole entry): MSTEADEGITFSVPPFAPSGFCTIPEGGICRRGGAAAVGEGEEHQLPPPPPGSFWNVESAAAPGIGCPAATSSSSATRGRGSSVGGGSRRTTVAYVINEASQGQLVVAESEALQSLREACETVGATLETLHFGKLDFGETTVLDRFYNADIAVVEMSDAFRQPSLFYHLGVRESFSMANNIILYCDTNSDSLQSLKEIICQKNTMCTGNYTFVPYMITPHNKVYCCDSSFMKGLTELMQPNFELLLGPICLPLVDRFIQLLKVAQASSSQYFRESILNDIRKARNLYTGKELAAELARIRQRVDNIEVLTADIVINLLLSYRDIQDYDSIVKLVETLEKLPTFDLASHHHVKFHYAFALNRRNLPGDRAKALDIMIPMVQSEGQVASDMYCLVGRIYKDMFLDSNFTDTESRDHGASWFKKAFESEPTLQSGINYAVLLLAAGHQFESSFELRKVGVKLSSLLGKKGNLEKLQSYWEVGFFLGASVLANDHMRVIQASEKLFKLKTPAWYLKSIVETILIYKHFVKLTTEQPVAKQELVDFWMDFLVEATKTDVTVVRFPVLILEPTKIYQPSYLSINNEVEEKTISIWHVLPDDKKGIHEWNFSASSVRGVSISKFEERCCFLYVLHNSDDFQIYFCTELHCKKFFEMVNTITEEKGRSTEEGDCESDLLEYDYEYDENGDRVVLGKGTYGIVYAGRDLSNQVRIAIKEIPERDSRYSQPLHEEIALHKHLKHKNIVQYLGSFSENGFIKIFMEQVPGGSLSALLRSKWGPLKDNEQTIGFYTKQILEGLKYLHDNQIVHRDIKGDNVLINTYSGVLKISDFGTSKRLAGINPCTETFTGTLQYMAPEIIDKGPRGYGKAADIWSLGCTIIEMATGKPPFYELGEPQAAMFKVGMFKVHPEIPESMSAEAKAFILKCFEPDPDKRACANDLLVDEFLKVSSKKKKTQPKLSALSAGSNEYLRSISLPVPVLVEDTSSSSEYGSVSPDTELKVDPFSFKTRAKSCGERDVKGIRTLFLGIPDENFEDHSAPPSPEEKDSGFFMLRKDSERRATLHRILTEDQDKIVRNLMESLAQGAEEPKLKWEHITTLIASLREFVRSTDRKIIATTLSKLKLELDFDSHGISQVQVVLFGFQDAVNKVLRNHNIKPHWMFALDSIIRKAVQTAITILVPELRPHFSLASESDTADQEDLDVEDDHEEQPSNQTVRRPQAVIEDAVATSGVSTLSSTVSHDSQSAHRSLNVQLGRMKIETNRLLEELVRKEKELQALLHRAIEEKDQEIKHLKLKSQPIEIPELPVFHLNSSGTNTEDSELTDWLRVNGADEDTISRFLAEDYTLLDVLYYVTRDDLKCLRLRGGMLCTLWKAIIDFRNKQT

[2] = target: Mitogen-activated protein kinase 10 (Homo sapiens) (UniProt P53779); assay: Inhibition of JNK3 (unknown origin) assessed as residual enzyme activity at 10 uM using JNK3tide substrate
[3] = target: Fibroblast growth factor receptor 1 (Homo sapiens) (UniProt P11362); assay: Inhibition of FGFR1 (unknown origin) assessed as residual enzyme activity at 10 uM using IGF-IRtide (12 to 527) substrate
[4] = target: Angiopoietin-1 receptor (Homo sapiens) (UniProt Q02763); assay: Inhibition of Tie2 (unknown origin) assessed as residual enzyme activity at 10 uM using TK Substrate 2 (poly Glu-Tyr) substrate
[5] = target: T2, Mitogen-activated protein kinase kinase kinase 5 (Homo sapiens) (UniProt Q99683); assay: Inhibition of recombinant ASK1 catalytic subunit (unknown origin) assessed as residual enzyme activity at 10 uM using MBP substrate and gamma-labeled 32P ATP incubated for 20 mins by liquid scintillation counting method
T2 sequence (whole entry): T1 sequence (Q99683 whole entry)

[6] = target: Casein kinase II (Homo sapiens) (UniProt P67870+P68400+P19784); assay: Inhibition of CK2 (unknown origin) assessed as residual enzyme activity at 10 uM using RRRDDDSDDD substrate peptide; format: protein-complex assay
[7] = target: T3, Aurora kinase A (Homo sapiens) (UniProt O14965); assay: Inhibition of Aurora A (unknown origin) assessed as residual enzyme activity at 10 uM using kemptide substrate
T3 sequence (whole entry): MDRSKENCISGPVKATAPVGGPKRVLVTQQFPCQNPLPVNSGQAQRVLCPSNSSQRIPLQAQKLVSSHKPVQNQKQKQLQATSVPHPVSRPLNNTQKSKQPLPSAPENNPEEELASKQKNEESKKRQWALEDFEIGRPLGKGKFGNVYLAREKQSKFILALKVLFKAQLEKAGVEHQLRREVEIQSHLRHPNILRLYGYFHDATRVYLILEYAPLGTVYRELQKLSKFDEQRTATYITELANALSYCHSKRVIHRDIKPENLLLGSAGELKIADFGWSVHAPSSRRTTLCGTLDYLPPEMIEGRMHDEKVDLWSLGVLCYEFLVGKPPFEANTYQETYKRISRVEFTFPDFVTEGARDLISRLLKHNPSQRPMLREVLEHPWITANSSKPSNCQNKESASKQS

Angiopoietin-1 receptor (Homo sapiens), sequence (Q02763 whole entry): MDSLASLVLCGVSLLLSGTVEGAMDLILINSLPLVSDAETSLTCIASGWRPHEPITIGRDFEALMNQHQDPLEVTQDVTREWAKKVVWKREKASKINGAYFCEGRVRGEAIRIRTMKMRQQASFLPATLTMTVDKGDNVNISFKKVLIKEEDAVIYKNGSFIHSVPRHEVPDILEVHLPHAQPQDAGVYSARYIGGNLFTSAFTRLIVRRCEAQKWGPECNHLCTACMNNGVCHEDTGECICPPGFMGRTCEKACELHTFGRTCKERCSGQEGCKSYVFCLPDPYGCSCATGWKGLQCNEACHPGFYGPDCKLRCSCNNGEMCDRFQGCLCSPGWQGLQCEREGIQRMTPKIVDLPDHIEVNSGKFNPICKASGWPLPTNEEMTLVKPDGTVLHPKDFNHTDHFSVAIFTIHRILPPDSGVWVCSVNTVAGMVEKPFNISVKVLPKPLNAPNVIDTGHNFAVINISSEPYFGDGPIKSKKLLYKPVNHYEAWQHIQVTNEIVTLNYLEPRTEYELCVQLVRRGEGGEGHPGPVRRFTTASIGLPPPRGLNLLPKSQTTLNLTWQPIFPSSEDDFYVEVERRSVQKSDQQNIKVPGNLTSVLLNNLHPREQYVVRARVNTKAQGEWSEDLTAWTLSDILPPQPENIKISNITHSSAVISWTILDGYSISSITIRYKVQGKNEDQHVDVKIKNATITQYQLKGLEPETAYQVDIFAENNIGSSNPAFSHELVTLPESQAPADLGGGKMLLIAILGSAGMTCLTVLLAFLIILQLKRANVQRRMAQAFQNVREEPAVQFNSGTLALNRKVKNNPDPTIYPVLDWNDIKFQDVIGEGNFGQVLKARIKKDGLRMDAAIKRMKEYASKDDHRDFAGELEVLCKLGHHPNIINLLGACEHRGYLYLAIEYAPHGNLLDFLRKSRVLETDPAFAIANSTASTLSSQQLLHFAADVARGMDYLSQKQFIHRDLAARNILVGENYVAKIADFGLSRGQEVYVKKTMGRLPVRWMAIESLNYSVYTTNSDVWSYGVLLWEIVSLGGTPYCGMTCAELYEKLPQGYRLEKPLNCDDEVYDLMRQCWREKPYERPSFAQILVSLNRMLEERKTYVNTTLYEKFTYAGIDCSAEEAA
Fibroblast growth factor receptor 1 (Homo sapiens), sequence (P11362 22-822 limits assumed): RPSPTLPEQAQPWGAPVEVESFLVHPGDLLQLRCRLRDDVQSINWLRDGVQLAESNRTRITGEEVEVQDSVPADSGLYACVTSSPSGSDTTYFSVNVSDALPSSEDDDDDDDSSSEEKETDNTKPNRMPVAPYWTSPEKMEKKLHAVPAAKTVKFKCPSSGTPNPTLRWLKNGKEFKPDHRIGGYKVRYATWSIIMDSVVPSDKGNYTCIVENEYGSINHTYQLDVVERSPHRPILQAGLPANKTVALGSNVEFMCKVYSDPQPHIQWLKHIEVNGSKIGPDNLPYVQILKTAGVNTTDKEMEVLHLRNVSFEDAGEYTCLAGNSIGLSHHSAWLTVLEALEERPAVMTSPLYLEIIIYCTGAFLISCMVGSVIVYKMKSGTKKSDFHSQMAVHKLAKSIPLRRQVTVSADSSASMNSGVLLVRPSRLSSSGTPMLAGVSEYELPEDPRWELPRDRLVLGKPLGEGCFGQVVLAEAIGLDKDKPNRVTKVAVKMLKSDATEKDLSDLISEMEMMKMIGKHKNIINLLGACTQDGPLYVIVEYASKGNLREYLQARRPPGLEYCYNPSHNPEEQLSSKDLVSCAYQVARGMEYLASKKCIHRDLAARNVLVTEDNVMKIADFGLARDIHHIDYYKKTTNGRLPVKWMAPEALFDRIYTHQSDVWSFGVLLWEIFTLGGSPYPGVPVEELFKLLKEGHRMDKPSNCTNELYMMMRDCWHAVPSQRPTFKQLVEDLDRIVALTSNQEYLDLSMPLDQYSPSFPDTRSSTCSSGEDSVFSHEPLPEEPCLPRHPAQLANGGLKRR
Mitogen-activated protein kinase 10 (Homo sapiens), sequence (P53779 whole entry): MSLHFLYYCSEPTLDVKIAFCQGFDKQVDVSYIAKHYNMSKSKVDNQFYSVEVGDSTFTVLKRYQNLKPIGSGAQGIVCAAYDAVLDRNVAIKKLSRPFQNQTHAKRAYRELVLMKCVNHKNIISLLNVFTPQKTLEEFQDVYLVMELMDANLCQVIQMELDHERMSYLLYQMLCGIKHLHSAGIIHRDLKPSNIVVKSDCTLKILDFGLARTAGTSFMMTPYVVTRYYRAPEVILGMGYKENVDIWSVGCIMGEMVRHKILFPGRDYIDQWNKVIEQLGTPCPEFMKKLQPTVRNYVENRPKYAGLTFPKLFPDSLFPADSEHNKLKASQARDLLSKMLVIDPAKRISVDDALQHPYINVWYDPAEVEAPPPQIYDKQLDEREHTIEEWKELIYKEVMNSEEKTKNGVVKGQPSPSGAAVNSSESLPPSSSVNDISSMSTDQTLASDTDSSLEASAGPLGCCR

SMILES	pIC50 [1]	Activity [2] [%]	Activity [3] [%]	Activity [4] [%]	Activity [5] [%]	Activity [6] [%]	Activity [7] [%]
Cc1ccc(C(=O)C2=C(O)C(=O)N(c3nc4ccc(F)cc4s3)C2c2ccc(C(C)(C)C)cc2)cc1 (stereo not drawn)	5.12						
CCCCOc1ccc(C2C(C(=O)c3ccc4c(c3)OCCO4)=C(O)C(=O)N2c2nc3ccc(Cl)cc3s2)cc1 (stereo not drawn)	5.28	100	36.2	100	15.8	99.3	35.2
CCCCCOc1ccc(C2C(C(=O)c3ccc4c(c3)OCCO4)=C(O)C(=O)N2c2nc3ccc(C)cc3s2)cc1 (stereo not drawn)	5.28	92.5	25.5	59.9	13.2	90	28.1
Cc1ccc2nc(N3C(=O)C(O)=C(C(=O)c4ccco4)C3c3ccc(Cl)cc3)sc2c1 (stereo not drawn)	4.52						
O=C(C1=C(O)C(=O)N(c2nc3ccc(F)cc3s2)C1c1cccc(Br)c1)c1ccco1 (stereo not drawn)	4.53						
COc1ccccc1C1C(C(=O)c2ccc(C)o2)=C(O)C(=O)N1c1nc2c(C)cc(C)cc2s1 (stereo not drawn)	4.45						
CCCOc1ccc(C2C(C(=O)c3ccc4c(c3)OCCO4)=C(O)C(=O)N2c2nc3ccc(Cl)cc3s2)cc1 (stereo not drawn)	5.30						
CCCCCOc1ccc(C2C(C(=O)c3ccc4c(c3)CC(C)O4)=C(O)C(=O)N2c2nc3ccc(F)cc3s2)cc1 (stereo not drawn)	6.12	100	26.9	68.4	18.1	92.6	28.4
COc1ccc2nc(N3C(=O)C(O)=C(C(=O)c4ccco4)C3c3ccc(Cl)cc3)sc2c1 (stereo not drawn)	5.38	96.8	46.4	66.4	39.1	73.9	48.1
CCCCOc1ccc(C2C(C(=O)c3ccc4c(c3)OCCO4)=C(O)C(=O)N2c2nc3ccc(Cl)cc3s2)cc1OCC (stereo not drawn)	5.44	100	18	78.8	19.7	89.7	28.8
Cc1ccc(C(=O)C2=C(O)C(=O)N(c3nc4ccc(C)cc4s3)C2c2ccc(C(C)(C)C)cc2)cc1 (stereo not drawn)	5.36						
O=C(C1=C(O)C(=O)N(c2nc3ccc(F)cc3s2)C1c1ccc(Br)cc1)c1ccco1 (stereo not drawn)	4.55						
Cc1ccc(C(=O)C2=C(O)C(=O)N(c3nc4ccc(F)cc4s3)C2c2ccc(C(C)(C)C)cc2)o1 (stereo not drawn)	5.81	100	92.7	100	32.6	68.3	100
Cc1ccc2nc(N3C(=O)C(O)=C(C(=O)c4ccco4)C3c3ccc(Br)cc3)sc2c1 (stereo not drawn)	4.55						
CCCOc1ccc(C2C(C(=O)c3ccc4c(c3)OCCO4)=C(O)C(=O)N2c2nc3ccc(C)cc3s2)cc1 (stereo not drawn)	5.70	80	22.6	99.2	43	81.8	49.5
CCOc1ccc2nc(N3C(=O)C(O)=C(C(=O)c4ccccc4)C3c3ccc(Cl)cc3)sc2c1 (stereo not drawn)	5.38	100	65.7	62.8	16.2	79.3	36.5
Cc1ccc2nc(N3C(=O)C(O)=C(C(=O)c4ccc(F)cc4)C3c3ccc(Cl)cc3)sc2c1 (stereo not drawn)	5.54						

Now from value to compound:

pIC50 [1]	Activity [2] [%]	Activity [3] [%]	Activity [4] [%]	Activity [5] [%]	Activity [6] [%]	Activity [7] [%]	SMILES
5.70							Cc1cc(C)c2nc(N3C(=O)C(O)=C(C(=O)c4ccc(C)o4)C3c3ccc(C(C)C)cc3)sc2c1 (stereo not drawn)
4.55							O=C(C1=C(O)C(=O)N(c2nc3ccc(F)cc3s2)C1c1cccc(Cl)c1)c1ccco1 (stereo not drawn)
5.30							CCOc1ccc2nc(N3C(=O)C(O)=C(C(=O)c4ccccc4)C3c3ccc(C(C)(C)C)cc3)sc2c1 (stereo not drawn)
5.70	100	40.3	100	23.5	97.8	52	CCOc1ccc2nc(N3C(=O)C(O)=C(C(=O)c4ccc(C)cc4)C3c3ccc(C(C)(C)C)cc3)sc2c1 (stereo not drawn)
5.04							CCOc1ccc(C2C(C(=O)c3cccs3)=C(O)C(=O)N2c2nc3ccc(C)cc3s2)cc1 (stereo not drawn)
5.26							CCOc1ccc(C(=O)C2=C(O)C(=O)N(c3nc4ccc(C)cc4s3)C2c2ccc(F)cc2)cc1 (stereo not drawn)
5.34	100	58.1	94.2	19.8	85.6	20.5	CCCCOc1ccc(C2C(C(=O)c3ccc4c(c3)OCCO4)=C(O)C(=O)N2c2nc3ccc(C)cc3s2)cc1 (stereo not drawn)
4.20							Cc1cc(C)c2nc(N3C(=O)C(O)=C(C(=O)c4ccco4)C3c3ccccc3)sc2c1 (stereo not drawn)
4.51							Cc1ccc2nc(N3C(=O)C(O)=C(C(=O)c4ccco4)C3c3cccc(Br)c3)sc2c1 (stereo not drawn)
5.20							Cc1cc(C)c2nc(N3C(=O)C(O)=C(C(=O)c4ccc(Cl)cc4)C3c3ccc(C(C)C)cc3)sc2c1 (stereo not drawn)
5.36	100	88.7	83.2	27	79.9	45.4	CCOc1ccc2nc(N3C(=O)C(O)=C(C(=O)c4cccs4)C3c3ccc(C)cc3)sc2c1 (stereo not drawn)
4.42							COc1ccc(C2C(C(=O)c3ccc(C)o3)=C(O)C(=O)N2c2nc3ccc(C)cc3s2)cc1OC (stereo not drawn)
5.60	100	46.8	92.5	12.3	83.6	52.9	CC(C)(C)c1ccc(C2C(C(=O)c3ccc4c(c3)OCCO4)=C(O)C(=O)N2c2nc3ccc(Cl)cc3s2)cc1 (stereo not drawn)
4.77							COc1ccc(C(=O)C2=C(O)C(=O)N(c3nc4ccc(F)cc4s3)C2c2cccc(F)c2)cc1 (stereo not drawn)
6.28	100	100	100	14	83.4	44.7	CC(C)CCOc1cccc(C2C(C(=O)c3ccc4c(c3)CC(C)O4)=C(O)C(=O)N2c2nc3ccc(F)cc3s2)c1 (stereo not drawn)
5.35	89.9	74.4	63.5	27.6	71.5	28.1	O=C(C1=C(O)C(=O)N(c2nc3ccc(F)cc3s2)C1c1cccc(Cl)c1)c1cccs1 (stereo not drawn)
4.37							O=C(C1=C(O)C(=O)N(c2nc3ccc(F)cc3s2)C1c1cccc(F)c1)c1ccco1 (stereo not drawn)
